Key:
[1] = biological target: T1, GluN2B glutamate receptors (Homo sapiens, UniProt Q05586+Q13224); test: Whole-cell patch clamp of mammalian cells (Ionworks Barracuda), positive allosteric modulation (PAM) of NMDA receptor, 2B; assay type: cell-based; conditions: for Avg Emax 2B (%) / Emax: % activation of current elicited with EC20 L-glutamate and 30 µM glycine; for EC50: co-application with EC20 L-glutamate and 30 µM glycine, 8-point concentration-response
T1 construct: expressed in transfected cells; host or cells: mammalian cells (line not described for GluN2B)
T1 sequence (Q13224 27-1484, other chains not shown): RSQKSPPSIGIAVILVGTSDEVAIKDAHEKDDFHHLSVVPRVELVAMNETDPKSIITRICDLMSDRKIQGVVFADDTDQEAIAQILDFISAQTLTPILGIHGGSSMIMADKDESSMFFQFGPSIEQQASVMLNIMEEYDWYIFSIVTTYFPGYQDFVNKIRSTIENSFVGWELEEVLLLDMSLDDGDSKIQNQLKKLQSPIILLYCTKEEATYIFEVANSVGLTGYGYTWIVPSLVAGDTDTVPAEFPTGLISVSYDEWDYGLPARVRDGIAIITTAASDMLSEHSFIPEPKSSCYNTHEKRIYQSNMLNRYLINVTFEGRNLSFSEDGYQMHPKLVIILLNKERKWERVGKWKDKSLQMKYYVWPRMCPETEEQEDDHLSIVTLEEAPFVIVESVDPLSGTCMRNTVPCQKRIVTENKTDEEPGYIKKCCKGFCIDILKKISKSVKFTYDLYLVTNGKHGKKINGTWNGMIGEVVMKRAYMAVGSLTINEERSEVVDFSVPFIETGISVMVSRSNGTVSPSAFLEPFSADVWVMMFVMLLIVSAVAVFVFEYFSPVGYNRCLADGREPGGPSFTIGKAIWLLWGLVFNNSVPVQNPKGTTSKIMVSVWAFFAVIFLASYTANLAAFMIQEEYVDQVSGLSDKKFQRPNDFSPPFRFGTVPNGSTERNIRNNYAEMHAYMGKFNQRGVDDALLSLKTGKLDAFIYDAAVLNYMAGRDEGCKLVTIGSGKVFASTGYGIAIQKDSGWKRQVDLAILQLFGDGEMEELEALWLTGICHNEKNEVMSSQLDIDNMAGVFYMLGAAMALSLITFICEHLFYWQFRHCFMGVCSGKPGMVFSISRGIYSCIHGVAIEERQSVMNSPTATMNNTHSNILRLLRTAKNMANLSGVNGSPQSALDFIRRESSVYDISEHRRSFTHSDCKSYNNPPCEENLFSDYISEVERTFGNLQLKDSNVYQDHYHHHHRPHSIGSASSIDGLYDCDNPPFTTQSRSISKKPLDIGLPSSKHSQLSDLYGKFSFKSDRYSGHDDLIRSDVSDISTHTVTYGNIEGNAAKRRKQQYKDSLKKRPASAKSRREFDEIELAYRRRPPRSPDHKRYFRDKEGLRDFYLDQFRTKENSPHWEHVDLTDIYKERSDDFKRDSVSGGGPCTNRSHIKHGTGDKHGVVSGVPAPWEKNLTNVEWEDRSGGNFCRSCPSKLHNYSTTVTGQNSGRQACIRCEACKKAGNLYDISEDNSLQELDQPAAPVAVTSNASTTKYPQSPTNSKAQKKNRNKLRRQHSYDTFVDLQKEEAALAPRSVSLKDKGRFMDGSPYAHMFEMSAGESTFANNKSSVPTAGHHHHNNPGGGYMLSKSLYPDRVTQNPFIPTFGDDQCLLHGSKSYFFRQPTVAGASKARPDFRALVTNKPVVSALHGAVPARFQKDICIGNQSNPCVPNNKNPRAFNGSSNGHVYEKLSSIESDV
Method: (§1) The measurements were perfomed using Ion Works Barracuda platform following this procedure: • Electrophysiological Procedures: • a) Intracellular solution (mM): 50 mM CsCl, 90 mM CsF, 2 mM MgCl2, 5 mM EGTA, 10 mM HEPES. Adjust to pH 7.2 with CsOH. • b) Extracellular solution, HB-PS (composition in mM): NaCl, 137; KCl, 1.0; CaCl2, 5; HEPES, 10; Glucose, 10; pH adjusted to 7.4 with NaOH (refrigerated until use). • c) Holding potential: -70 mV, potential during agonist/PAM application: -40 mV. • Recording procedure: • a) Extracellular buffer will be loaded into the PPC plate wells (11 µL per well). Cell suspension will be pipetted into the wells (9 µL per well) of the PPC planar electrode. • b) Whole-cell recording configuration will be established via patch perforation with membrane currents recorded by on-board patch clamp amplifiers. • c) Two recordings (scans) will be performed. First, during pre-application of test article alone (duration of pre-application - 5 min) and second, during test articles and agonist (EC20 L-glutamate and 30 µM glycine) co-application to detect positive modulatory effects of the test article.
(§2) Test Article Administration: The first pre-application will consist of the addition of 20 µL of 2X concentrated test article solution and, second, of 20 µL of 1X concentrated test article and agonist at 10 µL/s (2 second total application time).
(§3) PAM concentration-response data will be fitted to an equation of the form: % Activation = % L−glutamate EC20 + {(%MAX−%L−glutamateEC20)/[1+(([Test]/; EC50))^N]}, [formula] where [Test] will be the concentration of PAM (test article), EC50 will be the concentration of PAM producing half-maximal activation, N will be the Hill coefficient, % L-glutamate EC20 will be the percentage of the current Elicited with L-glutamate EC20, % MAX is the percentage of the current activated with the highest dose of PAM co-admitted with L-glutamate EC20 and % Activation will be the percentage of the current elicited with L-glutamate EC10-30 at each PAM concentration.
(§4) The maximal amplitude of the evoked currents are measured and defined as Peak Current Amplitude (PCA).

[2] = biological target: T2, GlunN1/GluN2A glutamate receptors (Homo sapiens, UniProt Q05586+Q12879); test: Whole-cell patch clamp of mammalian cells (Ionworks Barracuda), positive allosteric modulation (PAM) of NMDA receptor, 2A; assay type: cell-based; conditions: for Avg Emax 2A (%) / EC50: HEK293 cells; for Avg Emax 2A (%) / Emax: % activation of current elicited with EC20 L-glutamate and 30 µM glycine; for EC50: co-application with EC20 L-glutamate and 30 µM glycine, 8-point concentration-response; for Emax: HEK293, HEK293 cells
T2 construct: expressed in transfected cells
T2 sequence (Q12879 23-1464, other chains not shown): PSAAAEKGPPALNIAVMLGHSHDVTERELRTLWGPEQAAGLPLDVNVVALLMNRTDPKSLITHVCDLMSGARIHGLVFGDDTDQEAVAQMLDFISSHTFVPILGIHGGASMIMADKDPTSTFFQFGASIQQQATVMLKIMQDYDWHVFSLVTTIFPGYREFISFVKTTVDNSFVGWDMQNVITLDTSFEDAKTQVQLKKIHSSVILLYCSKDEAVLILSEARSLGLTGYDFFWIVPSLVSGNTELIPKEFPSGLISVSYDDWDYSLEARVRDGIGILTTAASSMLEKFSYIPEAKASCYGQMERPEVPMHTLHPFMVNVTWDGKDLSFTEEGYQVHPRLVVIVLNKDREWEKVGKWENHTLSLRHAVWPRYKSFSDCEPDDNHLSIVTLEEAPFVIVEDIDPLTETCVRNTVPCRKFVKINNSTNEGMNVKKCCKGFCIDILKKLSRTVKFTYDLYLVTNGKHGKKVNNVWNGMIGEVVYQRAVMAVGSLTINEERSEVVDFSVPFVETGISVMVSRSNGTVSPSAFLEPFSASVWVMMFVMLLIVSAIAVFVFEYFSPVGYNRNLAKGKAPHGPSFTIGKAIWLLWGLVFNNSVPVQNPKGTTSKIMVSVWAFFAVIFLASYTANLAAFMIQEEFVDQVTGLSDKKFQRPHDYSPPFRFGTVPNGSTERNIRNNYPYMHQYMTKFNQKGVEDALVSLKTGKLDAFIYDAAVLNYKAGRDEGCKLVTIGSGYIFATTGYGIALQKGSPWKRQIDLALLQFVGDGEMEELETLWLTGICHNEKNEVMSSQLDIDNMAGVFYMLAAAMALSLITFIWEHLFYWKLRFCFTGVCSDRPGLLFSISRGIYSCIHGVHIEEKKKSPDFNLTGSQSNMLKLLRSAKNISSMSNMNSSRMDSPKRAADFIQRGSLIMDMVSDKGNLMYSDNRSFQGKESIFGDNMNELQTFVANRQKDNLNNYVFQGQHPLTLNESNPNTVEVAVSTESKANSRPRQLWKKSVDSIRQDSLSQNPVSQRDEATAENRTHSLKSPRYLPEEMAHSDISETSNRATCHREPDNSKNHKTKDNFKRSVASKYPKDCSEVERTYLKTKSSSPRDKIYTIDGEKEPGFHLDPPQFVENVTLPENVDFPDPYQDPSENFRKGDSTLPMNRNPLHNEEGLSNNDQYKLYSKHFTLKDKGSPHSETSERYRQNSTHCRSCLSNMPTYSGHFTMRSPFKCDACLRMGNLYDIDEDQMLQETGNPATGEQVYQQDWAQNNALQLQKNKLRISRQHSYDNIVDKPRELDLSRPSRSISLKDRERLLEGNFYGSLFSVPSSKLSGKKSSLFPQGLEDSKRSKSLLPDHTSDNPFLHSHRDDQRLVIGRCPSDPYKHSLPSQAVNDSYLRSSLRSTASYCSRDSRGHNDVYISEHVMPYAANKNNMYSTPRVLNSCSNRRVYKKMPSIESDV
Method: as §1, §2, §3, §4

Row | SMILES | Avg Emax 2B (%) [1] | EC50 [1] | Avg Emax 2A (%) [2] | EC50 [2] | Emax [1] | Emax [2]
1 | C[C@H](CCC1(O)CCOCC1)[C@H]1CC[C@H]2[C@@H]3CC[C@H]4C[C@](O)(C(F)(F)F)CC[C@]4(C)[C@H]3CC[C@]12C [Compound 11] | 157.4% | 104 nM | 151.2% | 117 nM |  | 
2 | C[C@H](CC[C@H](O)C(C)(C)C)[C@H]1CC[C@H]2[C@@H]3CC=C4C[C@](O)(C(F)(F)F)CC[C@]4(C)[C@H]3CC[C@]12C [Compound 3507] |  |  |  |  | 241% | 166%
3 | C[C@H](CCC[C@@H](O)C(C)(C)C)[C@H]1CC[C@H]2[C@@H]3CC[C@H]4C[C@](O)(C(F)(F)F)CC[C@]4(C)[C@H]3CC[C@]12C [Compound 12055] | 184.7% | 1130 nM | 113.8% | 506 nM |  | 
4 | C[C@H](CC[C@](C)(O)C(F)(F)F)[C@H]1CC[C@H]2[C@@H]3CC=C4C[C@](O)(C(F)(F)F)CC[C@]4(C)[C@H]3CC[C@]12C [Compound 3035] |  |  |  |  | 611% | 323%
5 | CC[C@]1(O)CC[C@@]2(C)[C@@H](CC[C@@H]3[C@@H]2CC[C@]2(C)[C@@H]([C@H](C)CC[C@@H](O)c4ccccn4)CC[C@@H]32)C1 [Compound 7030] |  |  |  | > 10000 nM |  | 
6 | C[C@H](CCC[C@H](O)C(F)(F)F)[C@H]1CC[C@H]2[C@@H]3CC[C@H]4C[C@](O)(C(F)(F)F)CC[C@]4(C)[C@H]3CC[C@]12C [Compound 11934] | 70.0% | 470 nM | 113.4% | 729 nM |  | 
7 | C[C@H](CC[C@](C)(O)C(F)(F)F)[C@H]1CC[C@H]2[C@@H]3CC=C4C[C@@](C)(O)CC[C@@H]4[C@H]3CC[C@]12C [Compound 9062] | 52.2% | 179 nM | 66.5% | 34.5 nM |  | 
8 | CC(C)[C@@H](O)CC[C@@H](C)[C@H]1CC[C@H]2[C@@H]3CC=C4C[C@](O)(C(F)(F)F)CC[C@]4(C)[C@H]3CC[C@]12C [Compound 1-A] |  |  |  |  | 250% | 275%
9 | CC[C@]1(O)CC[C@@]2(C)C(=CC[C@H]3[C@@H]4CC[C@H]([C@H](C)CC[C@@H](O)c5ccccc5F)[C@@]4(C)CC[C@@H]32)C1 [Compound 7282] |  |  |  |  | 290% | 208%
10 | C[C@H](CC[C@H](O)C(C)(C)C)[C@H]1CC[C@H]2[C@@H]3CC[C@@H]4C[C@](O)(C(F)(F)F)CC[C@]4(C)[C@H]3CC[C@]12C [Compound 3634] |  |  |  |  | 379% | 221%
11 | CC[C@]1(O)CC[C@@]2(C)C(=CC[C@H]3[C@@H]4CC[C@H]([C@H](C)CC[C@H](O)c5ccc(F)cc5)[C@@]4(C)CC[C@@H]32)C1 [Compound 7146] |  |  |  |  | 167% | 104%
12 | C[C@H](CCC(O)C(C)(C)C)[C@H]1CC[C@H]2[C@@H]3CC=C4C[C@](O)(C(F)(F)F)CC[C@]4(C)[C@H]3CC[C@]12C (some centres unmarked) [Compound 2500] |  |  |  |  | 300% | 303%
13 | CC[C@]1(O)CC[C@H]2C(=CC[C@@H]3[C@@H]2CC[C@]2(C)[C@@H]([C@H](C)CC[C@@H](O)C(C)C)CC[C@@H]32)C1 [Compound 8463] |  |  |  |  | 324% | 291%
14 | CC[C@]1(O)CC[C@H]2C(=CC[C@@H]3[C@@H]2CC[C@]2(C)[C@@H]([C@H](C)CC[C@H](O)C(C)C)CC[C@@H]32)C1 [Compound 8462] |  |  |  |  | 281% | 273%
15 | C[C@H](O)CC[C@@H](C)[C@H]1CC[C@H]2[C@@H]3CC[C@H]4C[C@](O)(C(F)(F)F)CC[C@]4(C)[C@H]3CC[C@]12C [Compound 6] |  |  |  |  | 163% | 137%
16 | CCC1(O)CCC2(C)C(=CCC3C2CCC2(C)C(C(C)CCC(O)c4ccccc4F)CCC32)C1 (single isomer, unassigned) [Compound 7281] |  |  |  |  | 126% | 98.1%
17 | CC[C@H](O)CCC[C@@H](C)[C@H]1CC[C@H]2[C@@H]3CC=C4C[C@](O)(CC)CC[C@@H]4[C@H]3CC[C@]12C [Compound 10949] | 147.4% | 138 nM | 97.4% | 66.4 nM |  | 

Row | SMILES | Avg Emax 2B (%) [1] | EC50 [1] | Avg Emax 2A (%) [2] | EC50 [2] | Emax [1] | Emax [2]
18 | C[C@H](CCC1(O)CCC(F)(F)CC1)[C@H]1CC[C@H]2[C@@H]3CC=C4C[C@](O)(C(F)(F)F)CC[C@]4(C)[C@H]3CC[C@]12C [Compound 2392] |  |  |  |  | 166% | 230%
19 | CC[C@]1(O)CC[C@H]2C(=CC[C@@H]3[C@@H]2CC[C@]2(C)[C@@H]([C@H](C)CCC4(O)CCOC4)CC[C@@H]32)C1 (some centres unmarked) [Compound 8689] |  |  |  |  | 439% | 320%
20 | CC(C)[C@@H](O)CC[C@@H](C)[C@H]1CC[C@H]2[C@@H]3CC[C@H]4C[C@@](C)(O)CC[C@@H]4[C@H]3CC[C@]12C [Compound 1A75] | 308.0% | 440 nM | 457.2% | 671 nM |  | 
21 | CCC(O)CCC[C@@H](C)[C@H]1CC[C@H]2[C@@H]3CC=C4C[C@](O)(CC)CC[C@@H]4[C@H]3CC[C@]12C (some centres unmarked) [Compound 10673] | 213.5% | 180 nM | 215.5% | 254 nM |  | 
22 | CC[C@]1(O)CC[C@H]2C(=CC[C@@H]3[C@@H]2CC[C@]2(C)[C@@H]([C@H](C)CCC[C@@H](O)C(C)C)CC[C@@H]32)C1 [Compound 10114] | 179.1% | 506 nM | 146.3% | 321 nM |  | 
23 | C[C@H](O)CCC[C@@H](C)[C@H]1CC[C@H]2[C@@H]3CC[C@H]4C[C@](O)(C(F)(F)F)CC[C@]4(C)[C@H]3CC[C@]12C [Compound 2113] | 285.0% | 413 nM | 402.7% | 380 nM |  | 
24 | C[C@H](CCC1(O)CCC(OC(F)F)CC1)[C@H]1CC[C@H]2[C@@H]3CC[C@H]4C[C@](O)(C(F)(F)F)CC[C@]4(C)[C@H]3CC[C@]12C (some centres unmarked) [Compound 5131] | 39.0% | > 10000 nM | 52.9% | 33.6 nM |  | 
25 | C[C@H](CCC1(O)CCC(C)(C)CC1)[C@H]1CC[C@H]2[C@@H]3CC[C@@H]4C[C@](O)(C(F)(F)F)CC[C@]4(C)[C@H]3C(=O)C[C@]12C [Compound 5294] | 13.9% | > 10000 nM | 32.4% | > 10000 nM |  | 
26 | CC[C@]1(O)CC[C@H]2C(=CC[C@@H]3[C@@H]2CC[C@]2(C)[C@@H]([C@H](C)CC[C@]4(O)CCOC4)CC[C@@H]32)C1 [Compound 8603] |  |  |  |  | 271% | 294%
27 | C[C@H](CC[C@]1(O)CCOC1)[C@H]1CC[C@H]2[C@@H]3CC=C4C[C@](O)(C(F)(F)F)CC[C@]4(C)[C@H]3CC[C@]12C [Compound 3496] |  |  |  |  | 369% | 319%
28 | CC(C)[C@H](O)CC[C@@H](C)[C@H]1CC[C@H]2[C@@H]3CC=C4C[C@](O)(C(F)(F)F)CC[C@]4(C)[C@H]3CC[C@]12C [Compound 1-B] |  |  |  |  | 285% | 262%
29 | C[C@H](CCC(O)Cc1ccccc1)[C@H]1CC[C@H]2[C@@H]3CC=C4C[C@@](C)(O)CC[C@]4(C)[C@H]3CC[C@]12C (some centres unmarked) [Compound 660] | 281.1% | 517 nM | 195.2% | 701 nM |  | 
30 | C[C@H](CCC[C@H](O)C(C)(C)C)[C@H]1CC[C@H]2[C@@H]3CC[C@H]4C[C@](O)(C(F)(F)F)CC[C@]4(C)[C@H]3CC[C@]12C [Compound 12156] | 111.2% | 2460 nM | 43.2% | 154 nM |  | 
31 | C[C@H](CCC1(O)CCC(F)(F)CC1)[C@H]1CC[C@H]2[C@@H]3CC[C@H]4C[C@](O)(C(F)(F)F)CC[C@]4(C)[C@H]3CC[C@]12C [Compound 8] |  |  |  |  | 322% | 402%
32 | C[C@H](CC[C@@H](O)C(C)(C)C)[C@H]1CC[C@H]2[C@@H]3CC=C4C[C@](O)(C(F)(F)F)CC[C@]4(C)[C@H]3CC[C@]12C [Compound 3382] |  |  |  |  | 461% | 309%
33 | C[C@H](CC[C@H](O)C(C)(C)C)[C@H]1CC[C@H]2[C@@H]3CC[C@H]4C[C@](O)(C(F)(F)F)CC[C@]4(C)[C@H]3CC[C@]12C [Compound 2184] |  |  |  |  | 258% | 234%
34 | CC[C@]1(O)CC[C@@]2(C)[C@@H](CC[C@@H]3[C@@H]2CC[C@]2(C)[C@@H]([C@H](C)CC[C@H](O)c4ccccn4)CC[C@@H]32)C1 [Compound 7032] |  |  |  | > 10000 nM |  | 

— EP3529257B1, “[…] METHODS OF USE THEREOF” (Sage Therapeutics, Inc., priority 2016, dated 2018)
